The NIST ThermoML archive (doi:10.1016/j.fluid.2014.11.020)
± gives the expanded uncertainty stated by the source.

Test: activity coefficient (dimensionless); of the first substance listed, at infinite dilution; xn = mol fraction of the nth substance listed
Settings: Liquid, Chromatography, x1 = 0

Structure (SMILES): C1CCCCC1 [cyclohexane] + CCCOC[n+]1ccn(C)c1.F[B-](F)(F)F
- activity coefficient (323.15 K): 46.7 ± 3.2
- activity coefficient (333.15 K): 40.6 ± 2.8
- activity coefficient (343.15 K): 36.4 ± 2.5

Structure (SMILES): C1CCCCC1 [cyclohexane] + CCCOC[n+]1ccn(C)c1.N#C[N-]C#N
- activity coefficient (323.15 K): 26.6 ± 1.8
- activity coefficient (333.15 K): 24.3 ± 1.7
- activity coefficient (343.15 K): 22.7 ± 1.6

Structure (SMILES): C1CCCCC1 [cyclohexane] + CCCOC[n+]1ccn(C)c1.O=S(=O)([N-]S(=O)(=O)C(F)(F)F)C(F)(F)F
- activity coefficient (323.15 K): 9.55 ± 0.65
- activity coefficient (333.15 K): 9.25 ± 0.63
- activity coefficient (343.15 K): 9.07 ± 0.62

Structure (SMILES): C1CCCCC1 [cyclohexane] + CCCOC[n+]1ccn(Cc2ccccc2)c1.N#C[N-]C#N
- activity coefficient (323.15 K): 13.1 ± 0.9
- activity coefficient (333.15 K): 12.3 ± 0.84
- activity coefficient (343.15 K): 11.5 ± 0.79

Structure (SMILES): C1CCCCC1 [cyclohexane] + CCCOC[n+]1ccn(Cc2ccccc2)c1.O=S(=O)([N-]S(=O)(=O)C(F)(F)F)C(F)(F)F
- activity coefficient (323.15 K): 4.98 ± 0.34
- activity coefficient (333.15 K): 4.29 ± 0.29
- activity coefficient (343.15 K): 3.99 ± 0.27

Structure (SMILES): C1CCCCC1 [cyclohexane] + CN(C)c1cc[n+](COCCCOC[n+]2ccc(N(C)C)cc2)cc1.O=S(=O)([N-]S(=O)(=O)C(F)(F)F)C(F)(F)F.O=S(=O)([N-]S(=O)(=O)C(F)(F)F)C(F)(F)F
- activity coefficient (323.15 K): 10.7 ± 0.73
- activity coefficient (333.15 K): 9.32 ± 0.64
- activity coefficient (343.15 K): 8.67 ± 0.59

Structure (SMILES): C1CCCCC1 [cyclohexane] + Cn1cc[n+](COCCCOC[n+]2ccn(C)c2)c1.O=S(=O)([N-]S(=O)(=O)C(F)(F)F)C(F)(F)F.O=S(=O)([N-]S(=O)(=O)C(F)(F)F)C(F)(F)F
- activity coefficient (323.15 K): 17.6 ± 1.2
- activity coefficient (333.15 K): 12.4 ± 0.85

Structure (SMILES): CCCCCCCCCC [decane] + CCCCCCCCn1cc[n+](COCCC)c1C.N#C[N-]C#N
- activity coefficient (323.15 K): 17 ± 1.2
- activity coefficient (333.15 K): 15.5 ± 1.1
- activity coefficient (343.15 K): 14.9 ± 1

Structure (SMILES): CCCCCCCCCC [decane] + CCCCCCCCn1cc[n+](COCCC)c1C.O=S(=O)([N-]S(=O)(=O)C(F)(F)F)C(F)(F)F
- activity coefficient (323.15 K): 8.9 ± 0.61
- activity coefficient (333.15 K): 8.47 ± 0.58
- activity coefficient (343.15 K): 7.92 ± 0.54

Structure (SMILES): CCCCCCCCCC [decane] + CCCCCCCCn1cc[n+](COCCCOC[n+]2ccn(CCCCCCCC)c2C)c1C.N#C[N-]C#N.N#C[N-]C#N
- activity coefficient (323.15 K): 19.5 ± 1.3
- activity coefficient (333.15 K): 19.5 ± 1.3
- activity coefficient (343.15 K): 17.8 ± 1.2

Structure (SMILES): CCCCCCCCCC [decane] + CCCCCCCCn1cc[n+](COCCCOC[n+]2ccn(CCCCCCCC)c2C)c1C.O=S(=O)([N-]S(=O)(=O)C(F)(F)F)C(F)(F)F.O=S(=O)([N-]S(=O)(=O)C(F)(F)F)C(F)(F)F
- activity coefficient (323.15 K): 9.63 ± 0.66
- activity coefficient (333.15 K): 8.73 ± 0.6
- activity coefficient (343.15 K): 8.35 ± 0.57

Structure (SMILES): CCCCCCCCCC [decane] + CCCOC[n+]1ccc(N(C)C)cc1.O=S(=O)([N-]S(=O)(=O)C(F)(F)F)C(F)(F)F
- activity coefficient (323.15 K): 41.1 ± 2.8
- activity coefficient (333.15 K): 38.5 ± 2.6
- activity coefficient (343.15 K): 34.5 ± 2.4

Structure (SMILES): CCCCCCCCCC [decane] + CCCOC[n+]1ccn(C)c1.F[B-](F)(F)F
- activity coefficient (323.15 K): 635 ± 44
- activity coefficient (333.15 K): 573 ± 39
- activity coefficient (343.15 K): 500 ± 34

Structure (SMILES): CCCCCCCCCC [decane] + CCCOC[n+]1ccn(C)c1.N#C[N-]C#N
- activity coefficient (323.15 K): 372 ± 26
- activity coefficient (333.15 K): 356 ± 24
- activity coefficient (343.15 K): 287 ± 20

Structure (SMILES): CCCCCCCCCC [decane] + CCCOC[n+]1ccn(C)c1.O=S(=O)([N-]S(=O)(=O)C(F)(F)F)C(F)(F)F
- activity coefficient (323.15 K): 69.6 ± 4.8
- activity coefficient (333.15 K): 60.5 ± 4.2
- activity coefficient (343.15 K): 53 ± 3.6

Structure (SMILES): CCCCCCCCCC [decane] + CCCOC[n+]1ccn(Cc2ccccc2)c1.F[B-](F)(F)F
- activity coefficient (323.15 K): 244 ± 17
- activity coefficient (333.15 K): 220 ± 15
- activity coefficient (343.15 K): 178 ± 12

Structure (SMILES): CCCCCCCCCC [decane] + CCCOC[n+]1ccn(Cc2ccccc2)c1.N#C[N-]C#N
- activity coefficient (323.15 K): 144 ± 9.9
- activity coefficient (333.15 K): 123 ± 8.4
- activity coefficient (343.15 K): 105 ± 7.2

Structure (SMILES): CCCCCCCCCC [decane] + CCCOC[n+]1ccn(Cc2ccccc2)c1.O=S(=O)([N-]S(=O)(=O)C(F)(F)F)C(F)(F)F
- activity coefficient (323.15 K): 28.8 ± 2
- activity coefficient (333.15 K): 23.2 ± 1.6
- activity coefficient (343.15 K): 21.1 ± 1.4

Structure (SMILES): CCCCCCCCCC [decane] + CN(C)c1cc[n+](COCCCOC[n+]2ccc(N(C)C)cc2)cc1.O=S(=O)([N-]S(=O)(=O)C(F)(F)F)C(F)(F)F.O=S(=O)([N-]S(=O)(=O)C(F)(F)F)C(F)(F)F
- activity coefficient (323.15 K): 79.5 ± 5.5
- activity coefficient (333.15 K): 71 ± 4.9
- activity coefficient (343.15 K): 63 ± 4.3

Structure (SMILES): CCCCCCCCCC [decane] + Cn1cc[n+](COCCCOC[n+]2ccn(C)c2)c1.O=S(=O)([N-]S(=O)(=O)C(F)(F)F)C(F)(F)F.O=S(=O)([N-]S(=O)(=O)C(F)(F)F)C(F)(F)F
- activity coefficient (323.15 K): 141 ± 9.7
- activity coefficient (333.15 K): 132 ± 9
- activity coefficient (343.15 K): 109 ± 7.5

Structure (SMILES): CCCCCCCCCC [decane] + N#C[N-]C#N.N#C[N-]C#N.c1ccc(Cn2cc[n+](COCCCOC[n+]3ccn(Cc4ccccc4)c3)c2)cc1
- activity coefficient (323.15 K): 420 ± 29
- activity coefficient (333.15 K): 371 ± 25
- activity coefficient (343.15 K): 321 ± 22
